Test results: US12636370B2, “Combination therapy for treatment of cancer” (Institute For Cancer Research, priority 2019, dated 2026)

Experiments:
Type in all cases: cell-based
OVCAR8 MZ1-R cells [1] = experiment: CellTiter-Glo cell viability, OVCAR8 MZ1-R cells; details: escalating doses, 5 days; for sensitivity of MZ1-R cells relative to JQ1-R cells or parental cells: OVCAR8, inhibitor screen; for cell viability of MZ1-R cells compared with parental cells: OVCAR8 MZ1-R
OVCAR8 ARV-R cells [2] = experiment: CellTiter-Glo cell viability, OVCAR8 ARV-R cells; details: escalating doses, 5 days
[3] = tested on: BET proteins (BRD2, BRD3, BRD4); experiment: Western blot of BET proteins and BRD4 targets, OVCAR8 MZ1-R cells; details: Western blot
[4] = tested on: BET proteins (BRD2, BRD3, BRD4); experiment: Western blot of BET proteins, OVCAR8 ARV-R cells
[5] = tested on: INSR and downstream MTOR, AKT and MAPK signaling; experiment: Kinase signaling in BBD-R cells (MIB-MS, phospho-blot); details: for phosphorylation of P70S6K (T359): BBD-R cells (MZ1-R, ARV-R), 1 μM, 4 hours
Procedure: Reduced MIB-binding of kinases involved in cell cycle (WEE1, CHEK1, CDK2, CDK6 and PLK1), as well as kinases required for translation (EIF2AK1, EIF2AK2, and EIF2AK4) were also observed following GSK529A treatment. […] Enrichment maps of pathways repressed by INSR inhibition generated from MIB-MS profiles of OVCAR8 cells treated with GSK529A (1 μM) treatment for 48 hours. Statistical differences in protein log 2 LFQ z-scores comparing GSK529A to control treated MZ1-R cells was determined by paired T-Test Benjamini- Hochberg adjusted p values at FDR of <0.05 using Perseus Software. […] Enrichment maps were generated in Cytoscape using the Enrichment Map app v2.2.1. (data not shown).

BRD2, BRD3 or BRD4 RNA = experiment: qRT-PCR of BRD RNA levels, OVCAR8 MZ1-R cells; details: 1 μM, 48 hours
[6] = tested on: KURAMOCHI, COV362 and OVCAR5 MZ1-R cells; experiment: CellTiter-Glo cell viability, KURAMOCHI, COV362 and OVCAR5 MZ1-R cells; details: COV362 and OVCAR5, escalating doses, 5 days
[7] = tested on: BET proteins (BRD2, BRD4); experiment: Western blot of BET proteins, KURAMOCHI, COV362 and OVCAR5 MZ1-R cells
OVCAR5 JQ1-R cells = experiment: Growth curves, OVCAR5 JQ1-R cells
OVCAR8 JQ1-R cells [8] = experiment: CellTiter-Glo cell viability, OVCAR8 JQ1-R cells; details: escalating doses, 5 days
OVCAR8 cells [9] = experiment: CellTiter-Glo cell viability, OVCAR8 parental cells; details: dose escalation, 5 days
[10] = tested on: translation markers, RNA pol II, MYC; experiment: Western blot of translation, BRD4-targets and MYC signaling, OVCAR8 cells; details: 500 nM, 48 hours
BET proteins, FOSL1, MYC = experiment: Western blot of BET proteins and BRD4 targets, JQ1-R cells
OVCAR8 ARV-R cells [11] = experiment: Apoptosis by cleaved PARP Western blot, OVCAR8 ARV-R cells
[12] = tested on: BET proteins (BRD2, BRD3, BRD4); experiment: Western blot of BET protein levels, OVCAR8 parental cells
OVCAR8 cells [13] = experiment: Single-run proteome analysis and RNA-seq, OVCAR8 cells; details: 48 hours, single-run proteome analysis
Procedure: Enrichment maps of pathways repressed by short-term BBD generated from single-run proteome profiles of OVCAR8 cells treated with BBDs (MZ1 or ARV825) for 48 hours were prepared (data not shown). Statistical differences in protein log 2 LFQ z-scores comparing BBDs or BBIs to control treated cells was determined by paired T-Test Benjamini-Hochberg adjusted p values at FDR of <0.05 using Perseus Software. […] Enrichment maps were generated in Cytoscape using the Enrichment Map app v2.2.1. […] Statistical differences in protein log 2 LFQ z-scores comparing BBDs or BBIs to control treated cells was determined.

OVCAR8 MZ1-R cells [14] = experiment: Apoptosis by Western blot, OVCAR8 MZ1-R cells
OVCAR8 JQ1-R cells [15] = experiment: Apoptosis by cleaved PARP Western blot, OVCAR8 JQ1-R cells

SMILES: NC1(c2ccc(-c3nc4ccn5c(=O)[nH]nc5c4cc3-c3ccccc3)cc2)CCC1 [MK-2206]
- sensitivity of MZ1-R cells relative to JQ1-R cells or parental cells (OVCAR8 MZ1-R cells [1]): more sensitive
- cell viability of ARV-R cells compared with parental cells (OVCAR8 ARV-R cells [2]): reduced cell viability more than in parental cells

SMILES: CS(=O)(=O)CCNCc1ccc(-c2ccc3ncnc(Nc4ccc(OCc5cccc(F)c5)c(Cl)c4)c3c2)o1 [lapatinib]
- cell viability of ARV-R cells compared with parental cells (OVCAR8 ARV-R cells [2]): reduced cell viability more than in parental cells
- BET protein levels [3]: reduced BRD2 and BRD4 levels
- BET protein levels [4]: reduced BRD2 and BRD4 levels
- phosphorylation of P70S6K (T359) [5]: reduced MTOR-mediated phosphorylation of P70S6K (T359)
- BRD2, BRD3 or BRD4 RNA levels (BRD2, BRD3 or BRD4 RNA): unaffected
- cell viability / growth of MZ1-R cells compared with parental cells [6]: significantly blocked cell growth to a greater extent than parental cells
- BET protein levels [7]: reduced BRD2 and BRD4 proteins
- growth inhibition (OVCAR5 JQ1-R cells): minimal growth inhibition

SMILES: CNc1ncc2cc(-c3cc(NC(=O)NCCC(C)(C)C)c(F)cc3C)c(C)nc2n1 [LY3009120]
- cell viability of JQ1-R cells (OVCAR8 JQ1-R cells [8]): most profound impact on JQ1-R cell viability

SMILES: COC[C@@H](C)NC1CCC(Nc2cc(-c3cccc(NCC4(C#N)CCOCC4)n3)c(Cl)cn2)CC1 (stereo partly shown) [NVP-2]
- cell viability of MZ1-R cells compared with parental cells (OVCAR8 MZ1-R cells [1]): more sensitive
- cell viability of JQ1-R cells (OVCAR8 JQ1-R cells [8]): more sensitive

SMILES: O=C(c1cc(Cc2n[nH]c(=O)c3ccccc23)ccc1F)N1CCN(C(=O)C2CC2)CC1 [olaparib]
- cell viability of MZ1-R cells compared with parental cells (OVCAR8 MZ1-R cells [1]): more sensitive
- cell viability of JQ1-R cells (OVCAR8 JQ1-R cells [8]): more sensitive

SMILES: CS(=O)(=O)N1CCN(Cc2cc3nc(-c4cccc5[nH]ncc45)nc(N4CCOCC4)c3s2)CC1 [GDC-0941]
- cell viability of MZ1-R cells compared with parental cells (OVCAR8 MZ1-R cells [1]): more sensitive
- cell viability of JQ1-R cells (OVCAR8 JQ1-R cells [8]): more sensitive

SMILES: CCN(CCO)CCCC(C)Nc1ccnc2cc(Cl)ccc12 (stereo not shown) [hydroxychloroquine]
- cell viability of MZ1-R cells compared with parental cells (OVCAR8 MZ1-R cells [1]): more sensitive
- cell viability of JQ1-R cells (OVCAR8 JQ1-R cells [8]): more sensitive

SMILES: Cc1sc2c(c1C)C(c1ccc(Cl)cc1)=N[C@@H](CC(=O)OC(C)(C)C)c1nnc(C)n1-2 [JQ1]
- GI50 (OVCAR8 cells [9]): 133 nM
- RNA pol II (S2) phosphorylation [10]: not observed with JQ1
- cell viability of MZ1-R cells compared with parental cells (OVCAR8 MZ1-R cells [1]): reduced cell viability to a greater extent than parental cells
- cell viability of ARV-R cells compared with parental cells (OVCAR8 ARV-R cells [2]): reduced cell viability to a greater extent than parental cells
- cell viability of JQ1-R cells (OVCAR8 JQ1-R cells [8]): unaffected by increasing doses of JQ1
- BRD4 target (FOSL1, MYC) protein levels (BET proteins, FOSL1, MYC): failed to reduce BRD4 target FOSL1

SMILES: COc1ncccc1-c1cnn2ccc(N3CCN(C(=O)OC(C)C)CC3)nc12 [LP-935509]
- sensitivity of MZ1-R cells relative to JQ1-R cells or parental cells (OVCAR8 MZ1-R cells [1]): more sensitive
- cell viability of ARV-R cells compared with parental cells (OVCAR8 ARV-R cells [2]): reduced cell viability more than in parental cells

SMILES: CNC(=O)c1ccccc1Nc1cc(Nc2ccc(N3CCOCC3)cc2OC)ncc1C(F)(F)F [PND-1186]
- sensitivity of MZ1-R cells relative to JQ1-R cells or parental cells (OVCAR8 MZ1-R cells [1]): more sensitive

SMILES: O=C(O)c1ccc2c(c1)nc(Nc1cccc(Cl)c1)c1ccncc12 [Cx-4945]
- cell viability of MZ1-R cells compared with parental cells (OVCAR8 MZ1-R cells [1]): more sensitive
- cell viability of JQ1-R cells (OVCAR8 JQ1-R cells [8]): more sensitive

SMILES: Cc1ncsc1-c1ccc([C@H](C)NC(=O)[C@@H]2C[C@@H](O)CN2C(=O)[C@@H](NC(=O)COCCCOCCNC(=O)C[C@@H]2N=C(c3ccc(Cl)cc3)c3c(sc(C)c3C)-n3c(C)nnc32)C(C)(C)C)cc1 [ARV-771]
- cell viability of MZ1-R cells compared with parental cells (OVCAR8 MZ1-R cells [1]): cross-resistant
- cell viability of ARV-R cells compared with parental cells (OVCAR8 ARV-R cells [2]): failed to reduce BET proteins, block growth or induce apoptosis
- BET protein levels [4]: failed to reduce BET proteins, block growth or induce apoptosis
- apoptosis (OVCAR8 ARV-R cells [11]): failed to reduce BET proteins, block growth or induce apoptosis

SMILES: CC(C)C[C@H](NC(=O)[C@H](Cc1ccccc1)NC(=O)c1cnccn1)B(O)O [bortezomib]
- phosphorylated RNA pol II (S2) ([5]; OVCAR8 MZ1-R cells, 48 hour RAD001 treatment, with or without bortezomib): could be reversed by bortezomib treatment

SMILES: Cc1sc2c(c1C)C(c1ccc(Cl)cc1)=N[C@@H](CC(=O)Nc1ccc(OCCOCCOCCOCCNc3cccc4c3C(=O)N(C3CCC(=O)NC3=O)C4=O)cc1)c1nnc(C)n1-2 (stereo partly shown) [ARV825]
- BET protein levels [12]: degraded BET proteins in a concentration-dependent manner
- global protein level changes (OVCAR8 cells [13]): uniquely downregulated proteins involved in ribosome and translation signaling
- cell viability of MZ1-R cells compared with parental cells (OVCAR8 MZ1-R cells [1]): inhibited cell viability
- cell viability of ARV-R cells compared with parental cells (OVCAR8 ARV-R cells [2]): rightward shift
- cell viability of JQ1-R cells (OVCAR8 JQ1-R cells [8]): inhibited cell viability
- BET protein levels [3]: reduced BET proteins
- BET protein levels [4]: insufficient to degrade BRD2, BRD3 or BRD4
- BET protein levels (BET proteins, FOSL1, MYC): degraded BET proteins
- BRD4 target (FOSL1, MYC) protein levels (BET proteins, FOSL1, MYC): reduced MYC/FOSL1 protein levels
- apoptosis (OVCAR8 MZ1-R cells [14]): promoted apoptosis
- apoptosis (OVCAR8 JQ1-R cells [15]): induced apoptosis

SMILES: CCC(=O)N1CCN(c2ccc(-n3c(=O)ccc4cnc5ccc(-c6cnc7ccccc7c6)cc5c43)cc2C(F)(F)F)CC1 [Torin-1]
- BET protein levels [3]: reduced BRD2 and BRD4 levels
- BET protein levels [4]: reduced BRD2 and BRD4 levels
- phosphorylation of P70S6K (T359) [5]: reduced MTOR-mediated phosphorylation of P70S6K (T359)
